According to patent publication US20230129359A1, “MUSCARINIC RECEPTOR 4 ANTAGONISTS AND METHODS OF USE” (Neurocrine Biosciences, Inc., priority 2020, published 2023):

Target: T1, human M4 receptor (Homo sapiens, UniProt P08173)
T1 construct: expressed in transfected cells; host or cells: CHO cells
T1 sequence (P08173 1-479): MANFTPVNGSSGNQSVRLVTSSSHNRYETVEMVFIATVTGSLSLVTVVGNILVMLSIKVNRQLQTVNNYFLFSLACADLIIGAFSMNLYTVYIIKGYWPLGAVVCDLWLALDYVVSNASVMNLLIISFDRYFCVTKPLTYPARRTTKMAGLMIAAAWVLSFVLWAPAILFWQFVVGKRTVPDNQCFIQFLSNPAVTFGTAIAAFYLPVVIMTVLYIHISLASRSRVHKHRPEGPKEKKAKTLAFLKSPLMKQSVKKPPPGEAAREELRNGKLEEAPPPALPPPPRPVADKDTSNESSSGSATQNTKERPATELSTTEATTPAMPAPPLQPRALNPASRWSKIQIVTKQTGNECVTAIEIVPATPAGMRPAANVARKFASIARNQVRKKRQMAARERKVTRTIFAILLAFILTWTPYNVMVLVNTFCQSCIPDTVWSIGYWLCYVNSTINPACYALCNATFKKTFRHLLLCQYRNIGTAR
Test: Radioligand ([3H]N-methylscopolamine) binding assay, membranes from CHO cells expressing human M4 receptor
Conditions: Ki against human M4 receptor; membranes from CHO cells; tritiated N-methylscopolamine 1.5 nM; read-out: K
How it was run: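 Competition binding used CHO-cell membranes expressing human M4 with 1.5 nM [3H]N-methylscopolamine and twelve compound concentrations ([…]). Incubation was 90 minutes at 37 °C in 50 mM HEPES, 100 mM NaCl, 5 mM MgCl2, 1 mM EDTA, pH 7.4. Bound ligand was collected by filtration onto PEI-treated glass fibre for Ki.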

Compound	Ki
C[C@@H]1CN(c2ncc3ccccc3n2)C[C@H](C)N1C(=O)OC1CC2(C1)CN(Cc1ccccc1)C2 [Compound 377, 2-benzyl-2-azaspiro[3.3]heptan-6-yl (2R,6S)-2,6-dimethyl-4-(quinazolin-2-yl)piperazine-1-carboxylate]	100 to 1000 nM
C[C@@H]1CN(c2nc3ccc(C(F)(F)F)cc3s2)C[C@@H](C)N1C(=O)OC1CC2(C1)CN(Cc1ccc(F)cc1)C2 [Compound 385, 2-[(4-fluorophenyl)methyl]-2-azaspiro[3.3]heptan-6-yl (2R,6R)-2,6-dimethyl-4-[6-(trifluoromethyl)-1,3-benzothiazol-2-yl]piperazine-1-carboxylate]	10 to 100 nM
[2H]c1c([2H])c([2H])c(C([2H])([2H])N2CC3(CC(OC(=O)N4[C@H](C)CN(c5cnc(C(F)(F)F)cn5)C[C@@H]4C)C3)C2)c([2H])c1[2H] [Compound 388, 2-[(^2H5)phenyl(^2H2)methyl]-2-azaspiro[3.3]heptan-6-yl (2R,6S)-2,6-dimethyl-4-[5-(trifluoromethyl)pyrazin-2-yl]piperazine-1-carboxylate]	10 to 100 nM
C[C@@H]1CN(c2cnc3ccccc3n2)C[C@H](C)N1C(=O)OC1CC2(C1)CN(Cc1ccc(F)cc1)C2 [Compound 391, 2-[(4-fluorophenyl)methyl]-2-azaspiro[3.3]heptan-6-yl (2R,6S)-2,6-dimethyl-4-(quinoxalin-2-yl)piperazine-1-carboxylate]	10 to 100 nM
C[C@@H]1CN(c2cnc3ccccc3n2)[C@@H](C)CN1C(=O)OC1CC2(C1)CN(Cc1ccc(F)cc1)C2 [Compound 394, 2-[(4-fluorophenyl)methyl]-2-azaspiro[3.3]heptan-6-yl (2R,5S)-2,5-dimethyl-4-(quinoxalin-2-yl)piperazine-1-carboxylate]	10 to 100 nM
COc1ccc2nc(N3C[C@@H](C)N(C(=O)OC4CC5(C4)CN(Cc4ccc(F)cc4)C5)[C@@H](C)C3)cnc2c1 [Compound 395, 2-[(4-fluorophenyl)methyl]-2-azaspiro[3.3]heptan-6-yl (2R,6S)-4-(6-methoxyquinoxalin-2-yl)-2,6-dimethylpiperazine-1-carboxylate]	10 to 100 nM
COc1ccc2nc(N3C[C@@H](C)N(C(=O)OC4CC5(C4)CN(Cc4ccc(F)cc4)C5)C[C@@H]3C)cnc2c1 [Compound 396, 2-[(4-fluorophenyl)methyl]-2-azaspiro[3.3]heptan-6-yl (2R,5S)-4-(6-methoxyquinoxalin-2-yl)-2,5-dimethylpiperazine-1-carboxylate]	10 to 100 nM
C[C@@H]1CN(c2cnc3cc(F)ccc3n2)[C@@H](C)CN1C(=O)OC1CC2(C1)CN(Cc1ccc(F)cc1)C2 [Compound 397, 2-[(4-fluorophenyl)methyl]-2-azaspiro[3.3]heptan-6-yl (2R,5S)-4-(6-fluoroquinoxalin-2-yl)-2,5-dimethylpiperazin-1-carboxylate]	10 to 100 nM
C[C@@H]1CN(c2cnc(C(F)(F)F)cn2)C[C@@H](C)N1C(=O)OC1CC2(C1)CN(Cc1ccc(F)cc1)C2 [Compound 398, 2-[(4-fluorophenyl)methyl]-2-azaspiro[3.3]heptan-6-yl (2R,6R)-2,6-dimethyl-4-[5-(trifluoromethyl)pyrazin-2-yl]piperazine-1-carboxylate]	10 to 100 nM
C[C@@H]1CN(c2cnc(C(F)(F)F)cn2)C[C@H](C)N1C(=O)OC1CC2(C1)CN(Cc1ccc(F)cc1)C2 [Compound 399, 2-[(4-fluorophenyl)methyl]-2-azaspiro[3.3]heptan-6-yl (2R,6S)-2,6-dimethyl-4-[5-(trifluoromethyl)pyrazin-2-yl]piperazine-1-carboxylate]	10 to 100 nM
C[C@@H]1CN(c2cnc(C(F)(F)F)cn2)[C@@H](C)CN1C(=O)OC1CC2(C1)CN(Cc1ccc(F)cc1)C2 [Compound 400, 2-[(4-fluorophenyl)methyl]-2-azaspiro[3.3]heptan-6-yl (2R,5S)-2,5-dimethyl-4-[5-(trifluoromethyl)pyrazin-2-yl]piperazine-1-carboxylate]	10 to 100 nM
C[C@@H]1CN(c2nc3ccc(F)cc3s2)C[C@@H](C)N1C(=O)OC1CC2(C1)CN(Cc1ccc(C(N)=O)cc1)C2 [Compound 402, 2-[(4-carbamoylphenyl)methyl]-2-azaspiro[3.3]heptan-6-yl (2R,6R)-4-(6-fluoro-1,3-benzothiazol-2-yl)-2,6-dimethylpiperazine-1-carboxylate]	10 to 100 nM

The next lines start with the values.

Ki	Compound
< 10 nM	C[C@@H]1CN(c2nc3ccc(F)cc3s2)C[C@H](C)N1C(=O)OC1CC2(C1)CN(Cc1ccccc1)C2 [Compound 368, 2-benzyl-2-azaspiro[3.3]heptan-6-yl (2R,6S)-4-(6-fluoro-1,3-benzothiazol-2-yl)-2,6-dimethylpiperazine-1-carboxylate]
10 to 100 nM	C[C@@H]1CN(c2nc3ccc(F)cc3s2)C[C@@H](C)N1C(=O)OC1CC2(C1)CN(Cc1ccccc1)C2 [Compound 369, 2-benzy-2-azaspiro[3.3]heptan-6-yl (2R,6R)-4-(6-fluoro-1,3-benzothiazol-2-yl)-2,6-dimethylpiperazine-1-carboxylate]
< 10 nM	C[C@@H]1CN(c2nc3ccc(F)cc3s2)[C@@H](C)CN1C(=O)OC1CC2(C1)CN(Cc1ccccc1)C2 [Compound 370, 2-benzyl-2-azaspiro[3.3]heptan-6-yl (2R,5S)-4-(6-fluoro-1,3-benzothiazol-2-yl)-2,5-dimethylpiperazine-1-carboxylate]
< 10 nM	C[C@@H]1CN(c2nc3ccc(C(F)(F)F)cc3s2)[C@@H](C)CN1C(=O)OC1CC2(C1)CN(Cc1ccccc1)C2 [Compound 372, 2-benzyl-2-azaspiro[3.3]heptan-6-yl (2R,5S)-2,5-dimethyl-4-[6-(trifluoromethyl)-1,3-benzothiazol-2-yl]piperazine-1-carboxylate]
< 10 nM	C[C@@H]1CN(c2cnc3cc(C(F)(F)F)ccc3n2)C[C@H](C)N1C(=O)OC1CC2(C1)CN(Cc1ccccc1)C2 [Compound 378, 2-benzyl-2-azaspiro[3.3]heptan-6-yl (2R,6S)-2,6-dimethyl-4-[6-(trifluoromethyl)quinoxalin-2-yl]piperazine-1-carboxylate]
10 to 100 nM	COc1ccc2nc(N3C[C@@H](C)N(C(=O)OC4CC5(C4)CN(Cc4ccccc4)C5)[C@@H](C)C3)cnc2c1 [Compound 379, 2-benzyl-2-azaspiro[3.3]heptan-6-yl (2R,6S)-4-(6-methoxyquinoxalin-2-yl)-2,6-dimethylpiperazine-1-carboxylate]
< 10 nM	C[C@@H]1CN(c2cnc3cc(C(F)(F)F)ccc3n2)[C@@H](C)CN1C(=O)OC1CC2(C1)CN(Cc1ccccc1)C2 [Compound 380, 2-benzyl-2-azaspiro[3.3]heptan-6-yl (2R,5S)-2,5-dimethyl-4-[6-(trifluoromethyl)quinoxalin-2-yl]piperazine-1-carboxylate]
< 10 nM	C[C@@H]1CN(c2nc3ccc(F)cc3s2)C[C@H](C)N1C(=O)OC1CC2(C1)CN(Cc1ccc(F)cc1)C2 [Compound 381, 2-[(4-fluorophenyl)methyl]-2-azaspiro[3.3]heptan-6-yl (2R,6S)-4-(6-fluoro-1,3-benzothiazol-2-yl)-2,6-dimethylpiperazine-1-carboxylate]
< 10 nM	C[C@@H]1CN(c2nc3ccc(F)cc3s2)[C@@H](C)CN1C(=O)OC1CC2(C1)CN(Cc1ccc(F)cc1)C2 [Compound 383, 2-[(4-fluorophenyl)methyl]-2-azaspiro[3.3]heptan-6-yl (2R,5S)-4-(6-fluoro-1,3-benzothiazol-2-yl)-2,5-dimethylpiperazine-1-carboxylate]
< 10 nM	C[C@@H]1CN(c2nc3ccc(C(F)(F)F)cc3s2)C[C@H](C)N1C(=O)OC1CC2(C1)CN(Cc1ccc(F)cc1)C2 [Compound 384, 2-[(4-fluorophenyl)methyl]-2-azaspiro[3.3]heptan-6-yl (2R,6S)-2,6-dimethyl-4-[6-(trifluoromethyl)-1,3-benzothiazol-2-yl]piperazine-1-carboxylate]
< 10 nM	C[C@@H]1CN(c2nc3ccc(C(F)(F)F)cc3s2)[C@@H](C)CN1C(=O)OC1CC2(C1)CN(Cc1ccc(F)cc1)C2 [Compound 386, 2-[(4-fluorophenyl)methyl]-2-azaspiro[3.3]heptan-6-yl (2R,5S)-2,5-dimethyl-4-[6-(trifluoromethyl)-1,3-benzothiazol-2-yl]piperazine-1-carboxylate]
< 10 nM	[2H]c1c([2H])c([2H])c(C([2H])([2H])N2CC3(CC(OC(=O)N4[C@H](C)CN(c5ncc(C(F)(F)F)cn5)C[C@@H]4C)C3)C2)c([2H])c1[2H] [Compound 387, 2-[(^2H5)phenyl(^2H2)methyl]-2-azaspiro[3.3]heptan-6-yl (2R,6S)-2,6-dimethyl-4-[5-(trifluoromethyl)pyrimidin-2-yl]piperazine-1-carboxylate]
< 10 nM	C[C@@H]1CN(c2ncc3ccccc3n2)C[C@H](C)N1C(=O)OC1CC2(C1)CN(Cc1ccc(F)cc1)C2 [Compound 392, 2-[(4-fluorophenyl)methyl]-2-azaspiro[3.3]heptan-6-yl (2R,6S)-2,6-dimethyl-4-(quinazolin-2-yl)piperazine-1-carboxylate]
